In patent publication US5955508A, “Method for the enhancement of lymphocyte activity against opportunistic microbial pathogens” (priority 1996, dated 1999):
“Also recorded” adds a separate entry of the source. Where two headings read alike, the source gives them in different places.

How the values were obtained:
Format in all cases: cell-based, human
INF-γ in CD8+ T cells = assay: INF-γ production by CD8+ T cells, flow cytometry; conditions: 50 ng/ml, Mean ± SEM
Excerpt: (§1) The T lymphocytes analyzed were obtained from 20 HIV+ patients (9 females and 11 males, 25-48 years of age). The patients were diagnosed as being HIV+ within the past 0.5-9 years, and 15 are being treated with antiviral drugs. The subjects' study identification number (indicates the order in which bloods were drawn), CD4+ and CD8+ counts (determined March, 1996, as part of the present study), age, sex, date of diagnosis, and pharmacotherapy are provided in Table 1.
(§2) The experimental protocol for this project is illustrated in Table A. Note that the cultures were exposed to two doses (5 and 50 ng/ml) of d-FEN in the mitogenesis assays, whereas only one dose (50 ng/ml) was used in the antifungal and cytokine release assays.
(§3) Cytokine Profiles. Peripheral mononuclear cells were isolated by the Ficoll-Hypaque method and washed twice with RPMI-1640 medium. Cell suspensions were made at 1×10^6 /ml and the cells activated with interleukin-2 (IL-2) for 18 h or 4 days at 37° C. under 5% CO^2 +95% air. Monensin (1 nM) then was added to the culture to block secretion of cytokines, and the cultures allowed to continue for another 3 h. The cells were washed twice with PBS+1% fetal calf serum (FCS) with 0.1% saponin+0.1% sodium azide, then washed once with PBS-1% FCS and stained with anti-cytokine MAb-FL conjugate for 30 min. Following two washes, the cells were analyzed by flow cytometry for production of IL-2, IFN-γ and TNF-α. The MAbs-FL conjugates were obtained from Pharmingen (San Diego, Calif.). Potential effects of on cytokine production were evaluated (a) as increases in the percentage of a T cell subset which produce the respective cytokine; and, (b) as increases in the amount of cytokine produced by each subset. The latter were analyzed as a shift of the cytokine histograms.
(§4) The data were analyzed by a one- or two-way analysis of variance (ANOVA) with repeated measures where appropriate ([…] version 1; Jandel, San Rafael, Calif.). Significant main effects were subjected to post hoc analysis using the Student-Newman Keuls All Pairwise Multiple Comparisons test or the Mann-Whitney U test.

[1] = tested on: TNF-α in CD4+ (CD8-) T cells; assay: TNF-α production by CD4+ (CD8-) T cells, flow cytometry; conditions: for % Positive Cells (TNF-α immunopositive), d-FEN / TNF-α Titer, d-FEN: CD4+ (CD8-) T cells, Mean ± SEM; for inhibition at 0.05 µg/mL: Homo sapiens, T-cell
Excerpt: as §1, §2, §3, §4

CD4+ lymphocytes = assay: Con A induced lymphoproliferation of PBMC (CD4+ lymphocytes); conditions: for comparison of 5 ng/ml with 50 ng/ml d-FEN: 5 ng/ml vs 50 ng/ml
Excerpt: as §1
The patients fell into one of three groups (Groups A, B and C) based on their CD4+ cell counts (the number of T helper cells/μL blood): 8 of the HIV+ patients had normal (or above normal) CD4+ levels (normal range 550-1500/μL); 4 had levels between 200-499/μL; and, 7 had CD4+ counts equal to or below 200/μL. This latter group of patients by definition have AIDS (see Table 41-3 from K. J. Ryan (Ed.), Sherris Medical Microbiology, Third Edition, Appleton & Lange:Norwalk, Conn., 1994, p. 547). These patients, moreover, have had recurrent candidiasis and other opportunistic infections which have become increasingly difficult to manage. All of the patients' CD8+ cell (cytotoxic T lymphocytes) counts were within or above normal range (300-1000/μL). We were unable to obtain enough lymphocytes from one patient (#4) to analyze their antifungal activity.
Peripheral blood (40 ml) was drawn (Mar. 29-30, 1996) from the patients on a "first come, first serve" basis when they arrived at the Ponce Center for Diagnosis and Treatment (Dr. Hiram Valazquez, Medical Director) for their monthly checkup and who volunteered their blood for experimental analysis. In addition, blood was drawn from 4 healthy HIV- volunteers in order to study their lymphoproliferation response to Con A. The lymphocytes were isolated and processed as detailed below.
as §2
Cell Proliferation Analysis. Lymphoid cell suspensions were cultured in microtiter plates (Corning Glass Works, Corning, N.Y.) in the presence of 3.0 μg/ml Con-A (Pharmacia, Uppsala, Sweden) for 3 and 4 days at 37° C. d-FEN (5 and 50 ng/ml) was added the second day of culture. The cells were cultured at 2×10^5 /well in RPMI 1640 with 1% fetal bovine serum. The cells then were pulsed for 6.0 h with 1.0 μCi of [^3 H]-thymidine (DuPont-New England Nuclear Research, Boston, Mass.), harvested, and [^3 H]-thymidine incorporation determined with a liquid scintillation counter. The data are reported as a percent increase in the stimulation in dextrofenfluramine values.
as §4
^A The stimulatory effect of dFEN is expressed as a percent increase
in the stimulation index of PBMCs cultured with the two doses of dFEN
versus that cultured without dFEN. The data represent the greatest
stimulation that occurred after the lymphocytes had been in culture for 3
or 4 days. The mitogenic activity of the PBMC (CD4+ lymphocytes) index of
stimulation was calculated as follows: […]

CCN[C@@H](C)Cc1cccc(C(F)(F)F)c1 [d-FEN]
% Positive Cells (INF-γ immunopositive), d-FEN (INF-γ in CD8+ T cells; AIDS): 40 ± 5%
INF-γ Titer, d-FEN (INF-γ in CD8+ T cells; AIDS): 764 ± 86 geometric mean channel fluorescence
% Positive Cells (INF-γ immunopositive), d-FEN (INF-γ in CD8+ T cells; non-AIDS HIV+): 47 ± 4%
INF-γ Titer, d-FEN (INF-γ in CD8+ T cells; non-AIDS HIV+): 964 ± 71 geometric mean channel fluorescence
% Positive Cells (TNF-α immunopositive), d-FEN ([1]; 50 ng/ml, AIDS): 31 ± 4%
TNF-α Titer, d-FEN ([1]; 50 ng/ml, AIDS): 156 ± 40 geometric mean channel fluorescence
% Positive Cells (TNF-α immunopositive), d-FEN ([1]; 50 ng/ml, non-AIDS HIV+): 69 ± 3%
TNF-α Titer, d-FEN ([1]; 50 ng/ml, non-AIDS HIV+): 310 ± 40 geometric mean channel fluorescence
effect on TNF-α level in words ([1]; 50 ng/ml, CD4+ T cells, AIDS): not in the AIDS CD4+ T cells
effect on number of TNF-α+ cells in words ([1]; 50 ng/ml, CD4+ T cells, AIDS): failed to affect
inhibition at 0.05 µg/mL ([1]; read-out: percent change of TNF-α titer vs VEH): 23%
inhibition at 0.05 µg/mL ([1]; read-out: reduction of the level of TNF-α): 23%
mitogenesis of human controls and AIDS patients vs non-AIDS HIV+ patients (CD4+ lymphocytes; 5 ng/ml d-FEN): greater mitogenesis in the presence of 5 ng/ml d-FEN than the non-AIDS HIV+ patients
comparison of 5 ng/ml with 50 ng/ml d-FEN (CD4+ lymphocytes): lymphocytes obtained from human control and AIDS subjects respond better in vitro to a low (5 ng/ml) than to a high (50 ng/ml) dose; also recorded: greater lymphoproliferation in AIDS derived lymphocytes than 50 ng/ml
comparison of 5 ng/ml with 50 ng/ml d-FEN (CD4+ lymphocytes; listed as dextrofenfluramine): more effective than 50 ng/ml
mitogenesis of non-AIDS HIV+ patients (Groups A+B) vs AIDS group (CD4+ lymphocytes; 50 ng/ml d-FEN): greater mitogenesis than the AIDS group (Group C)
dose effect, two way ANOVA (CD4+ lymphocytes; 5 vs 50 ng/ml, p=0.15): did not reach significance
activation at 0.005 µg/mL (CD4+ lymphocytes; Homo sapiens, Lymphocyte, 5 ng/ml d-FEN, Groups A + B (non-AIDS HIV+), Con A, read-out: Increase in Index of Stimulation, Mean ± SEM): 17 ± 8%
activation at 0.05 µg/mL (CD4+ lymphocytes; Homo sapiens, Lymphocyte, 50 ng/ml d-FEN, Groups A + B (non-AIDS HIV+), Con A, read-out: Increase in Index of Stimulation, Mean ± SEM): 50 ± 8%
proliferation, AIDS patient #15 (CD4+ lymphocytes; no detectable CD4+ cells): did not show any proliferation
